The source of these data is ChEMBL document CHEMBL1201862, “PubChem BioAssay data set” (2004).

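Interpolation was linear, between the two tested concentrations surrounding the appropriate level; five concentrations were tested over 48 hours in 96-well plates. GI50 marks 50% less growth.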 Active and inactive are the calls of the source. No stated cut-off is given here; in the data, active = GI50 up to about 1.1 µM and inactive = higher.

Among the test systems are A498; OVCAR-4; Malme-3M; NCI-H522; IGROV-1; UACC-257; SK-MEL-5; HCT-15; 786-0; M14; RPMI-8226; HCT-116; SNB-19; NCI-H23; NCI-H226; T47D; OVCAR-5; PC-3; KM12; DU-145.
What all share (experiment): DTP human tumour cell line panel, 48 h

By GI50 is commonly meant the concentration giving 50% growth inhibition. With `CC(c1ccccc1)N1CCN(C(C)c2ccccc2)CC1` (stereo not given), the GI50 in the experiment on A498 was 77.4 µM (inactive); in the experiment with OVCAR-4 it was > 100 µM (inactive); with Malme-3M it was 56.6 µM (inactive); in the experiment with NCI-H522 it was > 100 µM (inactive); in the experiment on IGROV-1 it was > 100 µM (inactive); with UACC-257, 68.7 µM (inactive). Also, the GI50 in the experiment with SK-MEL-5 was 17.1 µM (inactive); in the experiment with HCT-15, 57.1 µM; in the experiment with 786-0, > 100 µM (inactive); in the experiment with M14, 22.8 µM (inactive); with RPMI-8226, 26.1 µM (inactive); in the experiment with HCT-116, 43.5 µM (inactive). Besides, the GI50 in the experiment with SNB-19, in the experiment with NCI-H23, in the experiment on NCI-H226, in the experiment with T47D, in the experiment with OVCAR-5 and in the experiment with PC-3 was > 100 µM (inactive) throughout. The GI50 with KM12 and in the experiment with DU-145 was > 100 µM (inactive) in each case.
